# Test results as given in US7879792B2, “Synthetic peptide inhibitors of thrombin and thrombin activation of protease activated receptors 1 and 4” (The Regents of the University of Michigan, priority 2005, dated 2011).
# Where a SMILES comes first, the peptide text is derived from it.
# Assays:
# [1] = stability testing in intestinal homogenate; type: in vitro ADME; settings: rat
# Procedure: Stability testing of the various compounds was performed in buffer, intestinal perfusate, and an intestinal homogenate preparation to assess the potential oral availability of these compounds. Initial studies prepared the tissue for stability studies. The buffer used in stability testing is 10 mM MES (pH 6.5) containing 135 mM NaCl, and 5 mM KCl. To collect intestinal perfusate from rats, male Sprague Dawley rats, 8 to 10 weeks old, weighing 250 to 350 g were fasted 15 to 18 hours with water given ad libitum. Anesthesia was administered by intramuscular injection of pentobarbital/ketamine (40 mg/kg and 80 mg/kg, respectively). The rats were placed on a warming pad under a surgical lamp to maintain body temperature and jejunal intestinal segments were exposed through a midline, abdominal incision. Approximately 20 cm segment of the jejunum (2 to 4 cm distal to the ligament of Treitz) was cannulated and the intestinal segments were perfused with 10 mM MES (pH 6.5) containing 135 mM NaCl, and 5 mM KCl at a flow-rate of 0.5 ml/min at 37° C. using a constant infusion pump (Harvard Apparatus, South Natick, Mass.). The collected perfusate was stored at −80° C. until use for ex vivo stability studies. After collection, the perfused intestinal segments were flushed with ice-cold 0.15 M KCl solution and the animal was euthanized and the jejunal intestinal segment detached. The inner intestinal tissue layers are scraped out and homogenized in MES buffer (pH 6.5) in a ratio of 1 part of intestinal tissue to 5 parts buffer. Total protein content of the perfusate and the homogenate were determined using a Biorad protein assay kit. The intestinal homogenate samples were used immediately or rapidly frozen at −80° C. until stability analysis.
# The actual stability testing protocol is as follows: A 0.1 ml aliquot of the synthetic peptide solution (1 mg/ml) was added to 0.9 ml of MES buffer, pH 6.5, intestinal perfusate, or intestinal homogenate at 37° C. Samples were mixed by vortexing and 100 microliter aliquots were removed over a 60 to 90 minute period for analysis of breakdown products. The 100 microliter sample aliquots were diluted 10 fold with water and subjected to solid phase extraction using a Waters Oasis HLB column. Briefly, the columns were preconditioned by passing 1 ml of MeOH and 1 ml of water over the column, and 1 ml of sample was added to the column. The column was washed with 5% methanol:95% water solution to remove proteins and salts, then eluted with 1 ml of 100% methanol. The methanol was removed by vacuum, and the sample was reconstituted in mobile phase for LC/MS/MS analysis.
# LC/MS/MS analysis was performed on a HP1100 HPLC (Hewlett Packard) interfaced with a Quattro II MS/MS detector (Waters/Micromass). For the HPLC separation, a 10 μL aliquot of sample in a mobile phase consisting of an equal volume mixture of acetonitrile/water containing 0.5% formic acid was injected onto a 150 mm×2.2 mm, 5 μm C8 column (Higgins Analytical Inc) and developed at a flow rate of 0.2 ml/min for 5 minutes. The MS detector was used in single ion recording mode at a cone voltage of 50 Volts.
# [2] = rat intestinal in situ perfusion permeability; type: in vivo
# Procedure: To determine the intestinal permeability of the various peptide analogs, male albino Sprague-Dawley rats, 9-10 weeks old and weighing 250-350 g were fasted for 18 hours with free access to water. The rats were anesthetized with an intramuscular injection of ketamine/xylazine/butorphanol (87 mg/kg, 6 mg/kg, and 0.2 mg/kg body weight, respectively). The abdomen was opened by a 4-5 cm midline incision and a 10 cm jejunal segment was cannulated on two ends and connected to a syringe pump that pumps the perfusing solution through the cannulated intestine at a constant rate and at a temperature of 37° C. The isolated segment was rinsed with 10 mM MES (pH 6.5) at a flow-rate of 0.5 ml/min in order to clean out any residual debris. Jejunal perfusion was subsequently performed with the same buffer containing 135 mM NaCl, 5 mM KCl and 0.01% PEG 4000 at a flow rate of 0.2 ml/min containing test compound, internal permeability reference standards (e.g., metoprolol) and ^14C-PEG 4000 as a non-absorbable marker for measuring water flux. After steady-state is reached within the perfused intestinal segment, typically 30 minutes after start of perfusion, samples were taken at 10 minute intervals for 1 hour. ^14C (PEG-4000) levels are assayed by scintillation counting and test compounds and internal permeability standard analysis by LC/MS/MS. Samples are frozen and stored at −80° C. until analysis.
# The effective permeability (Peff) determined from the in situ perfusion is calculated from equation 1
# [formula] where Q is the perfusion buffer flow rate, C′out is the outlet concentration of the compound that has been adjusted for water transport (equation 2) after passing through the intestinal segment, C′in is the inlet or starting concentration of the compound, R is the radius of the intestinal segment (set to 0.2 cm) and L is the length of the intestinal segment. To correct for water transport, a non-absorbed radioactive tracer, ^14C PEG-4000, is included in the perfusion buffer. The Cout/Cin ratio is corrected for water transport according to equation 2:
# [formula] where Aout-A0 is equal to the radioactivity counts in the outlet sample minus background (dpm) and Ain-A0 is equal to the radioactivity counts in the inlet sample minus background (dpm).
# In certain instances, in addition to perfusing the intestinal segment as described, plasma is drawn through a portal vein cannula to determine the amount of material entering the portal system during the perfusion. This additional experimental step can aid in determining the true intestinal permeability of unstable compounds. After steady state conditions are reached as described above, 0.5 ml aliquots of plasma are withdrawn from the portal vein at regular intervals throughout the experimental time frame. The plasma samples are deproteinated with acetonitrile and the sample is subjected to SPE and LC/MS analysis as described above. From the plasma concentration of compound, the mesenteric permeability can be determined by substitution into equation 3: Flux=A*Pe-mes*Ci 3) where Flux is equal to the portal blood flow (estimated at 1 ml/min in the rat)×the steady state mesenteric blood concentration of the peptide analogs, A is the absorptive area of the intestine (estimated at 12.56 cm^2 in the rat intestine), Pe-mes is the mesenteric Permeability (cm/sec), and Ci is the starting concentration of drug in the perfusate (ug/ml).
# γ-thrombin = experiment: inhibition of γ-thrombin hydrolysis of chromogenic substrate; type: biochemical, human; settings: read-out: Ki (μM) + SD, γIIa (2 nM); gamma-thrombin 2 nM, Sar-Pro-Arg-paranitroanilide
"half-life at 0.1 mg/ml ([1]; male, Sprague Dawley, intestinal homogenate, pH 6.5, 37° C., read-out: t1/2 (min) Intestinal Homogenate) [min]",stability in intestinal homogenate (FIG. 12) [1],Permeability (in situ) (cm/sec) ([2]; rat jejunal in situ perfusion),"Papp ([2]; rat, from portal vein plasma during perfusion, read-out: Permeability (mesenteric)) [×10⁻⁶ cm/s]",SMILES,Ki (γ-thrombin) [µM]
40.3,less stable,Degraded,0.451,"N=C(N)NCCC[C@@H](N)C(=O)N1[C@H](C(=O)N2CCC[C@H]2C(=O)NCC(=O)N[C@@H](Cc2ccccc2)C(N)=O)C[C@@H]2CCCC[C@@H]21 [rOicPGF, D-Arg-Oic-Pro-Gly-Phe, reference compound] (HELM PEPTIDE1{[dR].[O=C([C@@H]1C[C@@H]2CCCC[C@@H]2N1[*:1])[*:2]].P.G.F.[am]}$$$$V2.0)",
,,,,"Cc1ccc(C[C@H](NC(=O)[C@@H](C)NC(=O)[C@@H]2CCCN2C(=O)[C@@H]2C[C@@H]3CCCC[C@@H]3N2C(=O)[C@H](N)CCCNC(=N)N)C(N)=O)cc1 [rOicPaF(p-Me), D-Arg-Oic-Pro-D-Ala-Phe(p-Me)] (HELM PEPTIDE1{[dR].[O=C([C@@H]1C[C@@H]2CCCC[C@@H]2N1[*:1])[*:2]].P.[dA].[Cc1ccc(C[C@H](N[*:1])C(=O)[*:2])cc1].[am]}$$$$V2.0)",54.3 ± 16
